The term IC50 denotes the concentration at which inhibition is half-maximal.

The values below come from BindingDB's records for doi:10.1016/j.bmc.2020.115622 (Kyowa Kirin, 2020).

A short description of this assay: Inhibition of chemR23 expressed in human CAL1 cells assessed as reduction in chemerin-induced chemotaxis incubated for 4 hrs by cell counting based CellTiter-Glo assay.

With `CCCCN(c1nc2c(C(=O)O)cccc2o1)[C@H](C)c1ccc(-c2cc(Cl)ccc2-c2nc(=O)o[nH]2)cc1`, the IC50 is 235 nM.
The figure for `Cc1ccc(-c2nc(=O)o[nH]2)c(-c2ccc([C@@H](C)N(CC3CC3)c3nc4c(C(=O)O)cccc4o3)cc2)c1` is 63 nM.
